Test results: patent US8003096B2, “Means and methods for the recruitment and identification of stem cells” (Vlaams Interuniversitair Instituut voor Biotechnologie VZW, priority 2003, dated 2011)

Assays:
Assay type in all cases: in vivo, mouse
BM cells = assay: FACS analysis of BM cells after 5-FU; settings: for Sca-1+ progenitors in S-phase of the cell cycle: 5-FU treatment; for CD3ε+ lymphoid cell counts / Gr1+CD11b+ myeloid cell counts: day 7 after 5-FU; for BM HSCs (Sca-1+cKit+ cells) / HPCs (Sca-1+ cells): seven days after 5-FU
Source text: Murine BM cells were filtered through a 40 μm nylon mesh (Falcon) and stained with labeled anti-mouse antibodies against CD11b, Gr-1, CD3ε, CD19, Sca-1, α5β1, (BD Biosciences), cKit (eBioscience). Anti-mouse α4β1, antibodies were generated from hybridoma (PS/2; ATCC), and detected using a secondary labeled anti-rat antibody (Caltag). Mouse annexin II was detected using a goat anti-annexin II antibody (Santa Cruz), and a secondary labeled rabbit anti-goat antibody (Caltag). Mouse uPAR was detected using a rabbit anti-mouse uPAR antibody (Sier et al. (2004), Thromb. Haemost. 91:403-11), and a secondary labeled goat anti-rabbit antibody (BD Biosciences). Control stainings included matched isotype antibodies and pre-immune antibodies. Non-specific binding was prevented by addition of mouse serum (DAKO), as alternative for Fc-receptor block. For cell cycle analysis, BM cells were stained with Sca-1-FITC and treated with PI/RNAse (BD Biosciences), as previously described (Heissig et al. (2002), Cell 109:625-37). From EDTA-anti-coagulated human blood, full blood counts were performed, MNCs were prepared using Lymphoprep (Axis-Shield), counted, and 1×10^6 PB MNCs were stained with anti-human CD34 (Tebu Bio).

sKitL = sKitL levels in BM plasma (ELISA); settings: WT mice
Protocol: BM extracellular fluid (BM plasma) from mice was obtained as described previously (Petit et al. (2002), Nat. Immunol. 3:687-94). BM plasma from healthy volunteers was obtained by using the first 10 ml of collection via puncture in the iliac crest under local anesthesia, and immediate anti-coagulation with EDTA. Protein extraction on BM cells was performed as described (Heymans et al. (1999), Nat. Med. 5:1135-42). Murine sKitL and SDF1α protein levels were quantified using commercial available ELISA (R&D Systems, Abingdon, UK). Murine plasminogen, and murine and human suPAR were quantified by home-made ELISA (Heymans et al. (1999), Nat. Med. 5:1135-42; Sier et al. (2004), Thromb. Haemost. 91:403-11). Lyophilized pertussis toxin was obtained from List Laboratories. MMP-2, MMP-9, and MMP-12 activities were measured using gelatin-zymography, uPA and MMP-3 activities were measured using casein-zymography, as described previously (Heymans et al. (1999), Nat. Med. 5:1135-42). Samples from gene-deficient mice were used as negative controls. Plasmin activity of BM plasma or cells (pericellular activity) was measured using substrate colorimetry (S2403), as described previously (Heymans et al. (1999), Nat. Med. 5:1135-42). Fibrinolytic activity was measured using a modified fluorescent-based in vitro clot lysis assay (Heymans et al. (1999), Nat. Med. 5:1135-42). Western blotting was performed on non-reduced samples, which were neutralized with a cocktail of protease inhibitors (Complete Inhibitor, Roche). ECM components/fragments were detected with antibodies against mouse fibronectin and laminin (Sigma), and human D1D2D3 and D2D3 (Andolfo et al. (1999), Thromb. Haemost. 88:298-306), secondary HRP-labeled antibodies (DAKO), and ECL detection system (Amersham Pharmacia).

fibronectin, collagen IV = assay: Immunostaining of BM sections for ECM proteins
Protocol: Mice were killed via cervical dislocation, femurs were removed, fixed in 2% paraformaldehyde in PBS for 24 hours, and decalcified in EDTA solution. After dehydration and paraffin embedding, 10 μm transverse sections were prepared on Superfrost Plus slides. Immunohistochemistry was performed using antibodies against VWF (DAKO), MMP-9 (Oncogene), tPA, uPA, MMP-2, MMP-3, MMP-12 (Santa Cruz), laminin, fibronectin (Sigma), and collagen IV (kind gift from A. Noel). Analysis was performed on a Zeiss Axioplan2, a 3CCD video camera (DXC-93OP, Sony), and KS300 software.

SMILES: O=c1[nH]cc(F)c(=O)[nH]1 [5-FU, 5-fluorouracil]
- Sca-1+ progenitors in S-phase of the cell cycle (BM cells; Plg−/− mice): 1.2±0.6 ×10^4 per femur
- CD3ε+ lymphoid cell counts (BM cells; Plg−/− mice): 67±31 ×104 per femur
- Gr1+CD11b+ myeloid cell counts (BM cells; Plg−/− mice): 3±2 ×10^4 per femur
- BM HSCs (Sca-1+cKit+ cells) (BM cells; Plg−/− mice): 5±1 ×10^4 per femur
- HPCs (Sca-1+ cells) (BM cells; Plg−/− mice): 48±22 ×10^4 per femur
- Sca-1+ progenitors in S-phase of the cell cycle (BM cells; WT mice): 8.4±0.8 ×10^4 per femur
- CD3ε+ lymphoid cell counts (BM cells; WT mice): 438±122 ×104 per femur
- Gr1+CD11b+ myeloid cell counts (BM cells; WT mice): 29±13 ×10^4 per femur
- BM HSCs (Sca-1+cKit+ cells) (BM cells; WT mice): 42±9 ×10^4 per femur
- HPCs (Sca-1+ cells) (BM cells; WT mice): 206±20 ×10^4 per femur
- elevation of sKitL levels in the BM plasma (sKitL; seven days after treatment): 14 fold
- elevation of sKitL levels in the BM plasma (sKitL; ten days after treatment): 2.5 fold
- collagen-IV+ area as % of total area (fibronectin, collagen IV; 5-FU-treated WT mice): 21±1%
- fibronectin+ area as % of total area (fibronectin, collagen IV; 5-FU-treated WT mice): 9±1%
- collagen-IV+ area as % of total area (fibronectin, collagen IV; 5-FU-treated uPA−/− mice): 26±1%
- fibronectin+ area as % of total area (fibronectin, collagen IV; 5-FU-treated uPA−/− mice): 14±2%
